# Experimental data as given in patent US6437184B1, “Oxime compounds, their use, and intermediates for their production” (Sumitomo Chemical Company, Limited, priority 1997, dated 2002).
# Assays:
# Format in all cases: in vivo
# Spodoptera litura = test: Insecticidal test against Spodoptera litura; details: 144 h, 500 ppm water dilution, 2 ml absorbed in 13 g artificial diet, fourth-instar larvae, after 6 days
# Description: A 200-fold water dilution (500 ppm) of a test compound formulation obtained according to Formulation Example 1 or 2 was absorbed at a volume of 2 ml in an artificial diet (Insecta LF available from Nihon Nosan K.K.) having a weight of 13 g, which had been prepared in a polyethylene cup having a diameter of 11 cm. Five fourth-instar larvae of Spodoptera litura were set free in the cup. After 6 days, the survival of the larvae was examined to determine the mortality.
# Musca domestica = test: Insecticidal test against Musca domestica; details: 24 h, 500 ppm water dilution, 0.7 ml on filter paper with sucrose, female adults, after 1 day, read-out: mortality
# Description: In the bottom of a polyethylene cup having a diameter of 5.5 cm was placed a piece of filter paper having the same size. A 200-fold water dilution (500 ppm) of a test compound formulation obtained according to Formulation Example 1 was added dropwise at a volume of 0.7 ml on the filter paper, and about 30 mg of sucrose as a diet was uniformly placed thereon. Ten female adults of houseflies (Musca domestica) were set free in the cup, and the cup was kept covered. After 1 day, the survival of the adults was determined to determine the mortality.
# Plutella xylostella = test: Insecticidal test against Plutella xylostella; details: 96 h, 50 ppm water dilution sprayed over potted cabbages, 25 ml per pot, third-instar larvae, after 4 days, read-out: mortality
# Description: To a water dilution (50 ppm) of a test compound formulation obtained according to Formulation Example 1 was added a spreading agent (New RINOU available from Nihon Noyaku K.K.) at a dilution ratio of 3000-fold. The dilution was sprayed over potted cabbages at the four to five leaf stage at a volume of 25 ml per pot. After the treated plants were air dried, ten third-instar larvae of Plutella xylostella were set free on each pot. After 4 days, the mortality was determined.
# Tetranychus urticae = test: Acaricidal test against Tetranychus urticae; design: key: −: almost no damage and completely no surviving mites; ±: slight damage and some few surviving mites; +: rather smaller damage and a rather fewer surviving mites than non-treatment case; ++: same as non-treatment case; details: 500 ppm water dilution, 15 ml sprayed over brush bean with female adults set free 6 days before; after 8 days
# Description: About twenty female adults of Tetranychus urticae were set free on brush bean (Phaseolus vulgaris) in the primary leaf stage, which had been potted in a plastic cup for 7 days after the seeding. After 6 days, a 200-fold water dilution (500 ppm) of a test compound formulation obtained according to Formulation Example 1 or 2 was sprayed at a volume of 15 ml over the plant. After 8 days, each compound was evaluated for acaricidal activity on the following criteria.
# −: almost no damage and completely no surviving mites
# ±: slight damage and some few surviving mites
# +: rather smaller damage and a rather fewer surviving mites than non-treatment case
# ++: same as non-treatment case
# Helicoverpa armigera = test: Insecticidal test against Helicoverpa armigera; details: 120 h, 100 ppm water dilution, cotton leaf fragment immersed 10 seconds, third-instar larvae, after 5 days
# Description: A cotton leaf fragment (diameter, 5 cm) was immersed for 10 seconds Lin a water dilution (100 ppm) of a test compound formulation obtained according to Formulation Example 1. This fragment was taken out from the dilution, air dried, and placed in a polyethylene cup having a diameter of 5.5 cm. One third-instar larva of Helicoverpa armigera was set free in each cup. Ten larvae were used for each treatment. After 5 days, the mortality of the larvae was determined.
# Heliothis virescens = test: Insecticidal test against Heliothis virescens; details: 168 h, 100 ppm water dilution, 0.2 ml on surface of artificial diet, second-instar larvae, after 7 days
# Description: A water dilution (100 ppm) of a test compound formulation obtained according to Formulation Example 1 was added dropwise at a volume of 0.2 ml and uniformly spread over the surface of an artificial diet having a weight of 3 g, which had been prepared in a 30 ml plastic cup. After air drying, one second-instar larva of Heliothis virescens was set free in each cup. Ten larvae were used for each treatment. After 7 days, the mortality of the larvae was determined.
# Cydia pomonella = test: Insecticidal test against Cydia pomonella; details: 168 h, 100 ppm water dilution, 0.2 ml on surface of artificial diet, eggs just before hatching, after 7 days
# Summary of the method: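 A 100 ppm aqueous dilution of formulated compound (0.2 ml) was spread onto 3 g artificial diet and air-dried. About 20 near-hatching Cydia pomonella eggs on wax paper were added, four replicates per treatment. Larval mortality was recorded after 7 days.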
smiles,measurement,setting,value
"CC(COCCOCCOc1c(Cl)cc(OCC=C(Cl)Cl)cc1Cl)=NOC(C)(C)C [(203), 2-(2-(2,6-dichloro-4-(3,3-dichloro-2-propenyloxy)phenoxy)-ethoxy)ethoxyacetone O-tert-butyloxime]",mortality at 500 µg/mL,Spodoptera litura,≥ 80%
same,mortality at 500 µg/mL,Musca domestica,≥ 80%
"CC(COCCCCCOc1c(Cl)cc(OCC=C(Cl)Cl)cc1Cl)=NOC(C)(C)C [(104), 5-(2,6-dichloro-4-(3,3-dichloro-2-propenyloxy)phenoxy)pentyloxyacetone O-tert-butyloxime]",mortality at 50 µg/mL,Plutella xylostella,≥ 80%
same,acaricidal activity,Tetranychus urticae,“−” or “±”
same,mortality at 100 µg/mL,Helicoverpa armigera,≥ 80%
same,mortality at 500 µg/mL,Spodoptera litura,≥ 80%
same,mortality at 100 µg/mL,Heliothis virescens,≥ 80%
"CC(C)(C)ON=CCOCCCCOc1c(Cl)cc(OCC=C(Cl)Cl)cc1Cl [(6), 4-(2,6-dichloro-4-(3,3-dichloro-2-propenyloxy)phenoxy)butyloxyacetaldehyde O-tert-butyloxime]",mortality at 100 µg/mL,Cydia pomonella,≥ 80%
same,acaricidal activity,Tetranychus urticae,“−” or “±”
same,mortality at 500 µg/mL,Musca domestica,≥ 80%
"CC(COCCCCOc1c(Cl)cc(OCC=C(Cl)Cl)cc1Cl)=NOC(C)(C)C [(103), 4-(2,6-dichloro-4-(3,3-dichloro-2-propenyloxy)phenoxy)butyloxyacetone O-tert-butyloxime]",mortality at 50 µg/mL,Plutella xylostella,≥ 80%
same,mortality at 500 µg/mL,Spodoptera litura,≥ 80%
"ClC(Cl)=CCON=CCOCCCCCCOc1c(Cl)cc(OCC=C(Cl)Cl)cc1Cl [(34), 6-(2,6-dichloro-4-(3,3-dichloro-2-propenyloxy)phenoxy)hexyloxyacetaldehyde O-(3,3-dichloro-2-propenyl)oxime]",mortality at 100 µg/mL,Cydia pomonella,≥ 80%
same,mortality at 50 µg/mL,Plutella xylostella,≥ 80%
same,mortality at 500 µg/mL,Spodoptera litura,≥ 80%
same,mortality at 100 µg/mL,Heliothis virescens,≥ 80%
"CC(C)(C)ON=CCOCCCOc1c(Cl)cc(OCC=C(Cl)Cl)cc1Cl [(90), 3-(2,6-dichloro-4-(3,3-dichloro-2-propenyloxy)phenoxy)propyloxyacetaldehyde O-tert-butyloxime]",mortality at 100 µg/mL,Cydia pomonella,≥ 80%
same,mortality at 50 µg/mL,Plutella xylostella,≥ 80%
same,mortality at 500 µg/mL,Spodoptera litura,≥ 80%
same,mortality at 100 µg/mL,Heliothis virescens,≥ 80%
"CON=Cc1ccc(OCCCCOc2c(Cl)cc(OCC=C(Cl)Cl)cc2Cl)cc1 [(306), 4-(4-(2,6-dichloro-4-(3,3-dichloro-2-propenyloxy)phenoxy)butyloxy)benzaldehyde O-methyloxime]",mortality at 100 µg/mL,Cydia pomonella,≥ 80%
same,acaricidal activity,Tetranychus urticae,“−” or “±”
"CC(C)CCON=Cc1ccc(Oc2ccccc2)cc1 [(B), 4-phenoxy-benzaldehyde O-(3-methylbutyl)oxime, reference compound]",acaricidal activity,Tetranychus urticae,+
same,mortality at 500 µg/mL,Spodoptera litura,0%
same,mortality at 500 µg/mL,Musca domestica,0%
"CC(CC(C)C)=NOCCCCCCOc1c(Cl)cc(OCC=C(Cl)Cl)cc1Cl [(589), 4-methyl-2-pentanone O-(6-(2,6-dichloro-4-(3,3-dichloro-2-propenyloxy)phenoxy)hexyl)oxime]",mortality at 50 µg/mL,Plutella xylostella,≥ 80%
same,acaricidal activity,Tetranychus urticae,“−” or “±”
"CC(=NOCCCCCOc1c(Cl)cc(OCC=C(Cl)Cl)cc1Cl)C(C)C [(582), 3-methyl-2-butanone O-(5-(2,6-dichloro-4-(3,3-dichloro-2-propenyloxy)phenoxy)pentyl)oxime]",acaricidal activity,Tetranychus urticae,“−” or “±”
same,mortality at 100 µg/mL,Helicoverpa armigera,≥ 80%
"CCON=C(C)COc1ccc(OCC=CCl)cc1 [(A), 4-(3-chloro-2-propenyloxy)phenoxyacetone O-ethyloxime, reference compound]",mortality at 50 µg/mL,Plutella xylostella,0%
same,acaricidal activity,Tetranychus urticae,+
same,mortality at 100 µg/mL,Helicoverpa armigera,0%
same,mortality at 500 µg/mL,Spodoptera litura,0%
same,mortality at 500 µg/mL,Musca domestica,0%
"CCON=C(CC)c1ccc(OCCCOc2c(Cl)cc(OCC=C(Cl)Cl)cc2Cl)cc1 [(318), 4′-(3-(2,6-dichloro-4-(3,3-dichloro-2-propenyloxy)phenoxy)propyloxy)propiophenone O-ethyloxime]",acaricidal activity,Tetranychus urticae,“−” or “±”
same,mortality at 100 µg/mL,Helicoverpa armigera,≥ 80%
same,mortality at 500 µg/mL,Musca domestica,≥ 80%
"ClC(Cl)=CCON=CCOCCCOc1c(Cl)cc(OCC=C(Cl)Cl)cc1Cl [(33), 3-(2,6-dichloro-4-(3,3-dichloro-2-propenyloxy)phenoxy)propyloxyacetaldehyde O-(3,3-dichloro-2-propenyl)oxime]",mortality at 100 µg/mL,Cydia pomonella,≥ 80%
same,mortality at 50 µg/mL,Plutella xylostella,≥ 80%
same,mortality at 500 µg/mL,Spodoptera litura,≥ 80%
same,mortality at 100 µg/mL,Heliothis virescens,≥ 80%
"CC(COCCCCCOc1c(Cl)cc(OCC=C(Cl)Cl)cc1Cl)=NOCC=C(Cl)Cl [(47), 5-(2,6-dichloro-4-(3,3-dichloro-2-propenyloxy)phenoxy)pentyloxyacetone O-(3,3-dichloro-2-propenyl)oxime]",mortality at 100 µg/mL,Cydia pomonella,≥ 80%
same,mortality at 50 µg/mL,Plutella xylostella,≥ 80%
same,mortality at 500 µg/mL,Spodoptera litura,≥ 80%
same,mortality at 100 µg/mL,Heliothis virescens,≥ 80%
"CCCON=Cc1ccc(COc2c(Cl)cc(OCC=C(Cl)Cl)cc2Cl)cc1 [(327), 4-(2,6-dichloro-4-(3,3-dichloro-2-propenyloxy)phenoxymethyl)benzaldehyde O-propyloxime]",mortality at 50 µg/mL,Plutella xylostella,≥ 80%
same,acaricidal activity,Tetranychus urticae,“−” or “±”
same,mortality at 100 µg/mL,Helicoverpa armigera,≥ 80%
"CC(COCCCCCOc1c(Cl)cc(OCC=C(Cl)Cl)cc1Cl)=NOCC(Cl)(Cl)Cl [(173), 5-(2,6-dichloro-4-(3,3-dichloro-2-propenyloxy)phenoxy)pentyloxyacetone O-(2,2,2-trichloroethyl)oxime]",acaricidal activity,Tetranychus urticae,“−” or “±”
same,mortality at 500 µg/mL,Musca domestica,≥ 80%
"CC(C)(C)ON=CCOCCCCCCOc1c(Cl)cc(OCC=C(Cl)Cl)cc1Cl [(91), 6-(2,6-dichloro-4-(3,3-dichloro-2-propenyloxy)phenoxy)hexyloxyacetaldehyde O-tert-butyloxime]",mortality at 100 µg/mL,Cydia pomonella,≥ 80%
same,mortality at 50 µg/mL,Plutella xylostella,≥ 80%
same,mortality at 100 µg/mL,Helicoverpa armigera,≥ 80%
same,mortality at 500 µg/mL,Spodoptera litura,≥ 80%
same,mortality at 100 µg/mL,Heliothis virescens,≥ 80%
"CC(C)(C)ON=CCOc1c(Cl)cc(OCC=C(Cl)Cl)cc1Cl [(131), (2,6-dichloro-4-(3,3-dichloro-2-propenyloxy)phenoxy)acetaldehyde O-tert-butyloxime]",mortality at 500 µg/mL,Spodoptera litura,≥ 80%
"CCCC=NOCCCCCOc1c(Cl)cc(OCC=C(Cl)Cl)cc1Cl [(542), butanal O-(5-(2,6-dichloro-4-(3,3-dichloro-2-propenyloxy)phenoxy)pentyl)oxime]",acaricidal activity,Tetranychus urticae,“−” or “±”
same,mortality at 500 µg/mL,Musca domestica,≥ 80%
"CC(C)(C)ON=CCCOc1c(Cl)cc(OCC=C(Cl)Cl)cc1Cl [(133), 3-(2,6-dichloro-4-(3,3-dichloro-2-propenyloxy)phenoxy)propionaldehyde O-tert-butyloxime]",mortality at 500 µg/mL,Spodoptera litura,≥ 80%
"CC(COCCCCCOc1c(Cl)cc(OCC=C(Cl)Cl)cc1Cl)=NOC(=O)C(C)(C)C [(178), 5-(2,6-dichloro-4-(3,3-dichloro-2-propenyloxy)phenoxy)pentyloxyacetone O-pivaloyloxime]",acaricidal activity,Tetranychus urticae,“−” or “±”
"CC(C)(C)ON=CCCCCCOc1c(Cl)cc(OCC=C(Cl)Cl)cc1Cl [(134), 6-(2,6-dichloro-4-(3,3-dichloro-2-propenyloxy)phenoxy)hexanal O-tert-butyloxime]",mortality at 50 µg/mL,Plutella xylostella,≥ 80%
same,mortality at 500 µg/mL,Spodoptera litura,≥ 80%
same,mortality at 100 µg/mL,Heliothis virescens,≥ 80%
